Where “and” joins values, the source holds several entries; their conditions need not be identical. Identical values can stand only once. Toxic doses and inconclusive results are not listed. Cut-off read from the data, not from the text of the source: active = T/C of 150% or more; inactive = T/C below 125%.
Test system: L1210 leukemia ip in BDF1 mice, survival T/C
Assay: NCI In Vivo Anticancer Drug Screen. Data for tumor model L1210 Leukemia (intraperitoneal) in B6D2F1 (BDF1) mice
Details: endpoint: mean survival time, higher = longer survival
In short: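 Ratio derived from survival: compound-dosed mice over vehicle-dosed mice, all bearing a transplantable tumor.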

[1] = dose: 100.0 mg/kg/injection, schedule: Q04DX003 (ip), vehicle: Klucel (hydroxypropylcellulose) (HPC)
[2] = dose: 200.0 mg/kg/injection, schedule: Q04DX003 (ip), vehicle: Klucel (hydroxypropylcellulose) (HPC)
[3] = dose: 400.0 mg/kg/injection, schedule: Q04DX003 (ip), vehicle: Klucel (hydroxypropylcellulose) (HPC)
[4] = dose: 100.0 mg/kg/injection, schedule: Q01DX009 (ip), vehicle: Klucel (hydroxypropylcellulose) (HPC)
[5] = dose: 200.0 mg/kg/injection, schedule: Q01DX009 (ip), vehicle: Klucel (hydroxypropylcellulose) (HPC)
[6] = dose: 400.0 mg/kg/injection, schedule: Q01DX009 (ip), vehicle: Klucel (hydroxypropylcellulose) (HPC)
[7] = dose: 25.0 mg/kg/injection, schedule: Q04DX003 (ip), vehicle: saline
[8] = dose: 50.0 mg/kg/injection, schedule: Q01DX009 (ip), vehicle: saline
[9] = dose: 50.0 mg/kg/injection, schedule: Q04DX003 (ip), vehicle: saline
[10] = dose: 100.0 mg/kg/injection, schedule: Q01DX009 (ip), vehicle: saline
[11] = dose: 200.0 mg/kg/injection, schedule: Q01DX009 (ip), vehicle: saline
[12] = dose: 400.0 mg/kg/injection, schedule: Q01DX009 (ip), vehicle: saline
[13] = dose: 100.0 mg/kg/injection, schedule: Q04DX002 (ip), vehicle: Klucel (hydroxypropylcellulose) (HPC)
[14] = dose: 25.0 mg/kg/injection, schedule: Q04DX003 (ip), vehicle: Klucel (hydroxypropylcellulose) (HPC)
[15] = dose: 50.0 mg/kg/injection, schedule: Q04DX003 (ip), vehicle: Klucel (hydroxypropylcellulose) (HPC)
[16] = dose: 200.0 mg/kg/injection, schedule: Q04DX002 (ip), vehicle: Klucel (hydroxypropylcellulose) (HPC)
[17] = dose: 400.0 mg/kg/injection, schedule: Q04DX002 (ip), vehicle: Klucel (hydroxypropylcellulose) (HPC)

Measured: T/C

CC[Si](CC)(CC)C(C)Cl (stereo not drawn)
inactive: [1] 101 % of control | [2] 101 % of control | [3] 98 % of control

Brc1ccc(N2N=NC3CNCC32)cc1 (stereo not drawn)
inactive: dose: 100.0 mg/kg/injection, schedule: Q04DX003 (ip), vehicle: saline with Tween-80 92 % of control | dose: 200.0 mg/kg/injection, schedule: Q04DX003 (ip), vehicle: saline with Tween-80 105 % of control | dose: 400.0 mg/kg/injection, schedule: Q04DX003 (ip), vehicle: saline with Tween-80 94 % of control

c1ccc(/C(=N\Nc2nc3ccccc3s2)c2ccncc2)cc1
inactive: [4] 89 % of control | [5] 91 % of control | [6] 96 % of control

Cc1ccc(S(=O)(=O)/N=S(\Cc2ccccc2)c2ccccc2)cc1 (stereo not drawn)
inactive: [4] 92 % of control | [1] 93 % of control | [5] 89 % of control | [2] 97 % of control | [6] 92 % of control | [3] 98 % of control

Cc1ccccc1C(=O)C(=O)c1ccccc1C
inactive: [4] 95 % of control | [5] 106 % of control | [6] 93 % of control

CCCNCCCN
inactive: dose: 25.0 mg/kg/injection, schedule: Q01DX009 (ip), vehicle: saline 100 % of control | [7] 93 % of control | [8] 105 % of control | [9] 101 % of control | dose: 100.0 mg/kg/injection, schedule: Q04DX003 (ip), vehicle: saline 94 % of control and 102 % of control | dose: 200.0 mg/kg/injection, schedule: Q04DX003 (ip), vehicle: saline 88 % of control

CCOc1ccn(C2CCOC2=O)c(=O)n1 (stereo not drawn)
inactive: [10] 100 % of control | dose: 100.0 mg/kg/injection, schedule: Q04DX003 (ip), vehicle: alcohol 104 % of control | [11] 97 % of control | dose: 200.0 mg/kg/injection, schedule: Q04DX003 (ip), vehicle: alcohol 102 % of control | [12] 100 % of control | dose: 400.0 mg/kg/injection, schedule: Q04DX003 (ip), vehicle: alcohol 102 % of control

O=C(CCl)N(c1ccccc1)c1ccccc1
inactive: dose: 25.0 mg/kg/injection, schedule: Q04DX002 (ip), vehicle: Klucel (hydroxypropylcellulose) (HPC) 101 % of control and 107 % of control | dose: 50.0 mg/kg/injection, schedule: Q04DX002 (ip), vehicle: Klucel (hydroxypropylcellulose) (HPC) 103 % of control | [13] 95 % of control and 92 % of control

CN1C2CSCC1CC(O)C2 (stereo not drawn)
inactive: dose: 37.0 mg/kg/injection, schedule: Q04DX003 (ip), vehicle: other 101 % of control | dose: 37.5 mg/kg/injection, schedule: Q01DX009 (ip), vehicle: other 105 % of control | dose: 75.0 mg/kg/injection, schedule: Q01DX001 (ip), vehicle: other 102 % of control | dose: 75.0 mg/kg/injection, schedule: Q01DX001 (ip), vehicle: saline 103 % of control | dose: 75.0 mg/kg/injection, schedule: Q01DX009 (ip), vehicle: other 104 % of control | dose: 75.0 mg/kg/injection, schedule: Q04DX003 (ip), vehicle: other 98 % of control | dose: 150.0 mg/kg/injection, schedule: Q01DX001 (ip), vehicle: other 93 % of control | dose: 150.0 mg/kg/injection, schedule: Q01DX009 (ip), vehicle: other 104 % of control | dose: 150.0 mg/kg/injection, schedule: Q04DX003 (ip), vehicle: other 101 % of control

c1ccc([Se]c2ccccn2)nc1
inactive: dose: 12.5 mg/kg/injection, schedule: Q01DX009 (ip), vehicle: Klucel (hydroxypropylcellulose) (HPC) 101 % of control | dose: 12.5 mg/kg/injection, schedule: Q04DX003 (ip), vehicle: Klucel (hydroxypropylcellulose) (HPC) 105 % of control | dose: 25.0 mg/kg/injection, schedule: Q01DX001 (ip), vehicle: Klucel (hydroxypropylcellulose) (HPC) 102 % of control | dose: 25.0 mg/kg/injection, schedule: Q01DX009 (ip), vehicle: Klucel (hydroxypropylcellulose) (HPC) 98 % of control | [14] 103 % of control | dose: 50.0 mg/kg/injection, schedule: Q01DX001 (ip), vehicle: Klucel (hydroxypropylcellulose) (HPC) 110 % of control | [15] 107 % of control and 110 % of control | dose: 100.0 mg/kg/injection, schedule: Q01DX001 (ip), vehicle: Klucel (hydroxypropylcellulose) (HPC) 105 % of control

CCCCCCCCCCCCCCCCCCNC(=O)Nc1ccc(SC)cc1
inactive: [13] 101 % of control | [16] 96 % of control | [17] 101 % of control

NC1CCC(CC2CCCC2)CC1 (stereo not drawn)
inactive: [14] 96 % of control | [15] 93 % of control | [1] 104 % of control and 90 % of control

Cc1ccc(NC(=O)Oc2ccccc2C(N)=O)cc1NC(=O)Oc1ccccc1C(N)=O
inactive: [4] 93 % of control | [5] 94 % of control | [6] 89 % of control

Clc1cccc(Cl)c1C[N+]12CN3CN(CN(C3)C1)C2
inactive: dose: 30.0 mg/kg/injection, schedule: Q01DX015 (ip), vehicle: saline 95 % of control | dose: 60.0 mg/kg/injection, schedule: Q01DX015 (ip), vehicle: saline 100 % of control | dose: 120.0 mg/kg/injection, schedule: Q01DX015 (ip), vehicle: saline 105 % of control

Cc1nccn1-c1ccc(Cl)cc1N=Cc1ccc(N(CCCl)CCCl)cc1Cl
inactive: [13] 95 % of control | [16] 95 % of control | [17] 106 % of control

COc1cc(N=O)c(C(=O)c2nccc3cc(OC)c(OC)cc23)cc1OC
inactive: dose: 100.0 mg/kg/injection, schedule: Q01DX001 (ip), vehicle: saline 104 % of control | dose: 200.0 mg/kg/injection, schedule: Q01DX001 (ip), vehicle: saline 91 % of control | dose: 400.0 mg/kg/injection, schedule: Q01DX001 (ip), vehicle: saline 94 % of control

Cn1c(=O)c2c(nc(N/N=C/c3ccc(O)cc3)n2C)n(C)c1=O
inactive: dose: 44.0 mg/kg/injection, schedule: Q01DX Z (ip), vehicle: methylcellulose (MC) 94 % of control | dose: 66.0 mg/kg/injection, schedule: Q01DX Z (ip), vehicle: methylcellulose (MC) 97 % of control | dose: 100.0 mg/kg/injection, schedule: Q01DX Z (ip), vehicle: methylcellulose (MC) 96 % of control

O=C1C=Cc2ccc(O)cc2C1=O
inactive: dose: 0.57 mg/kg/injection, schedule: Q01DX Z (ip), vehicle: saline 107 % of control | dose: 0.86 mg/kg/injection, schedule: Q01DX Z (ip), vehicle: saline 109 % of control | dose: 1.3 mg/kg/injection, schedule: Q01DX Z (ip), vehicle: saline 113 % of control | dose: 2.0 mg/kg/injection, schedule: Q01DX Z (ip), vehicle: saline 101 % of control and 104 % of control | dose: 3.0 mg/kg/injection, schedule: Q01DX Z (ip), vehicle: saline 89 % of control | dose: 4.5 mg/kg/injection, schedule: Q01DX Z (ip), vehicle: saline 95 % of control | dose: 6.7 mg/kg/injection, schedule: Q01DX Z (ip), vehicle: saline 101 % of control and 90 % of control | dose: 10.0 mg/kg/injection, schedule: Q01DX001 (ip), vehicle: acetone 104 % of control

O=c1ccc2c(c1)oc1cccc3c(=O)c4ccccc4c2c13
inactive: dose: 50.0 mg/kg/injection, schedule: Q01DX009 (ip), vehicle: saline with Tween-80 97 % of control | dose: 100.0 mg/kg/injection, schedule: Q01DX009 (ip), vehicle: saline with Tween-80 101 % of control

[NH-]C(Cc1ccccc1)C(=O)O.[NH-]C(Cc1ccccc1)C(=O)O.[Ni+2] (stereo not drawn)
inactive: dose: 12.5 mg/kg/injection, schedule: Q04DX003 (ip), vehicle: saline 95 % of control | [7] 95 % of control | [9] 98 % of control

COc1ccc(F)cc1CC#N
inactive: [13] 98 % of control | [16] 98 % of control

CCc1cc2oc(C)c(C)c2c(N=Nc2ccc(Cl)cc2)c1O
inactive: [13] 99 % of control | [16] 96 % of control | [17] 99 % of control

CCC(=O)ONO
inactive: [8] 94 % of control | [10] 102 % of control | [11] 94 % of control

O=C(O)C1CC2CCC1C2 (stereo not drawn)
inactive: [10] 100 % of control | [11] 104 % of control | [12] 92 % of control

Cc1ccnc(NC(=O)NCCCl)c1
inactive: dose: 100.0 mg/kg/injection, schedule: Q01DX001 (ip), vehicle: carboxymethylcellulose (CMC) 103 % of control | dose: 200.0 mg/kg/injection, schedule: Q01DX001 (ip), vehicle: carboxymethylcellulose (CMC) 108 % of control | dose: 400.0 mg/kg/injection, schedule: Q01DX001 (ip), vehicle: carboxymethylcellulose (CMC) 108 % of control
